Assay results published in US9658235B2, “Pi-extended acedan derivatives, their application for two-photon microscopy imaging, and their application for two-photon microscopy imaging of amyloid-beta plaque in an alzheimer's disease animal model” (POSTECH ACADEMY-INDUSTRY FOUNDATION, priority 2015, dated 2017).
One block for each compound: values may come before it.

Legend:
[1] = Fluorescent properties (emission spectra, fluorescence quantum yield); type: physicochemical
Procedure: More specifically, in order to determine the fluorescent properties of two-photon absorbing fluorophores, the inventors of the present invention filled quartz cells having a path length of 1 cm with an ethanol solution (1%-DMSO included) which included the compounds 4a to 7a (R1=R2=Me) having a concentration of 10 μM to measure fluorescence spectra (fluorescence spectra were measured using a photon technical international fluorescence system). The results thereof with normalized fluorescence as a y-axis and light wavelength as an x-axis are shown in FIG. 1(B) and with fluorescence intensity as a y-axis and light wavelength as an x-axis are shown in FIG. 7.
Quartz cells having a path length of 1 cm were filled with a dichloromethane, acetonitrile, ethanol (1%-DMSO included) and PBS buffer solution (10 mM, pH 7.4, 0.1%-DMSO included) which included compound 4a (R1=R2=Me) having a concentration of 1 μM to measure fluorescence spectra.
Further, the fluorescence quantum yield was measured with respect to an ethanol solution including the compounds 4a to 8a (R1=R2=Me) having a concentration of 10 μM, and the result is shown in FIG. 6. Acedan which is mainly used was used as a comparative compound (fluorescence quantum yield, ΦF=0.52, measured in ethanol solution).

SHSY5Y cells = test: MTT cytotoxicity; type: cell-based; details: 1 hour, described as low cytotoxicity
Procedure: In order to determine the cytotoxicity of cells treated with the compound 4a (R1=R2=Me) and the compound 8a (R1=R2=Me), the metabolic capability of a formazan of SHSY5Y cells with respect to […] (MTT) was evaluated.
More specifically, the cells (100 μL/well) were prepared with the density of about 5×10^3 cells in each well on a 96-well plate. The cells were treated with the compound 4a (R1=R2=Me) and the compound 8a (R1=R2=Me) each having concentrations of 1, 20 and 50 μM, was incubated for 1 hour, were cleaned using a PBS buffer solution, and 25 μL of a MTT solution (5 mg/mL) was added to each well. After the cells were incubated at 37° C. for 2 hours, the media was removed, and a formazan crystal was dissolved in DMSO to measure absorbance using a plate reader. […] Accordingly, it may be determined that the cytotoxicity of the compound 4a (R1=R2=Me) and the compound 8a (R1=R2=Me) was low to be suitable for obtaining a two-photon microscope image in tissue and an animal model.

[2] = Absorption properties of two-photon absorbing fluorophores; type: physicochemical; details: 10 μM in ethanol solution (1%-DMSO included)
Procedure: More specifically, in order to determine the absorption properties of two-photon absorbing fluorophores, the inventors of the present invention filled quartz cells (114F-QS, Hellma Analytics) having a path length of 1 cm with an ethanol solution (1%-DMSO included) which included the compounds 4a to 7a (R1=R2=Me) having a concentration of 10 μM to measure absorption spectra. […] The absorption spectra were measured using an HP 8453 UV/Vis spectrophotometer.
Thereafter, a molar extinction coefficient (ε(Lmol^−1 cm^−1)) in a maximum absorption wavelength was calculated with respect to an ethanol solution (1%-DMSO included) which included the compounds 4a to 8a (R1=R2=Me) having a concentration of 10 μM, and the result is shown in FIG. 6. Referring to FIG. 6, it may be determined that the molar extinction coefficients (ε>11,500) for the two-photon absorbing fluorophores (particularly, compounds 4a to 8a (R1=R2=Me)) according to the embodiment of the present invention were larger than that (ε=10,700) of acedan known as a conventional two-photon absorbing fluorophore.

[3] = conventional acedan; cited from earlier work
[4] = Solubility in PBS buffer solution from absorption spectra; type: physicochemical; details: PBS 10 mM, pH 7.4, DMSO of less than 1%; concentrations of 1, 5 and 10 μM
Procedure: Quartz cells having a path length of 1 cm were filled with a PBS buffer solution (10 mM, pH 7.4, DMSO of less than 1% included) which included the compounds 4a to 7a (R1=R2=Me) each having concentrations of 1, 2, 5 and 10 μM to measure absorption spectra.
Quartz cells having a path length of 1 cm were filled with a PBS buffer solution (10 mM, pH 7.4, DMSO of less than 1% included) which included the compound 8a (R1=R2=Me) each having concentrations of 1, 5, 10, 15 and 20 μM to measure absorption spectra.

amyloid beta 42 (Aβ 42) = biological target: T1, amyloid beta 42 (Aβ 42) (Homo sapiens, UniProt P05067); test: Fluorescence spectra according to the presence of amyloid beta 42 and BSA; type: binding; details: 10 μM compound
T1 construct: according to the presence of amyloid beta 42 (Aβ 42)
Procedure: Quartz cells having a path length of 1 cm were filled with a PBS buffer solution (10 mM, pH 7.4, 0.1%-DMSO included) or an artificial cerebrospinal fluid (NaCl (124 mM), KCl (3 mM), NaH2PO4 (1.25 mM), MgCl2 (1 mM), NaHCO3 (36 mM), D-gluocose (10 mM), CaCl2(2 mM), 95%-O2, 5%-CO2 (by bubbler), aCSF and 1%-DMSO included) which included the compound 8a (R1=R2=Me) having a concentration of 10 μM to measure fluorescence spectra according to the presence of amyloid beta 42 (Aβ 42) and bovine serum albumin (BSA, 20 μg/mL), and the result is shown in FIG. 4. Referring to FIG. 4, it may be determined that the fluorescence intensity of the compound 8a (R1=R2=Me) was low when an amyloid beta plaque was absent, and the fluorescence intensity of the compound 8a (R1=R2=Me) increased when an amyloid beta plaque was present. […] In order to determine the fluorescent properties (y-axis) of the compound 8a (R1=R2=Me) according to the concentration of an amyloid beta plaque (x-axis), quartz cells having a path length of 1 cm were filled with a PBS buffer solution (1%-DMSO included) which included the compound 8a (R1=R2=Me) having a concentration of 10 μM and an amyloid beta plaque (0-50 μM) to measure fluorescence spectra, and the result is shown in FIG. 14.

[5] = Fluorescence intensity according to pH; type: physicochemical; details: 10 μM, aqueous solution (1%-DMSO), pH 4 to 10, excitation 500 nm
Procedure: In order to determine the fluorescent properties (y-axis) of the compound 8a (R1=R2=Me) according to the pH (x-axis), quartz cells having a path length of 1 cm were filled with an aqueous solution (1%-DMSO included) which has a pH in the range of 4 to 10 and included the compound 8a (R1=R2=Me) having a concentration of 10 μM to measure the fluorescence spectrum, and the result is shown in FIG. 15.

amyloid beta plaque = biological target: T2, amyloid beta plaque (Homo sapiens, UniProt P05067); test: In vivo two-photon microscope imaging of amyloid beta plaque in an Alzheimer's disease animal model; parameters: species or system 5XFAD mice
T2 construct: tissue The Jackson Laboratory stock no; 006554; host or cells: brain of living 5XFAD (Tg6799) mice, 13 months old, imaged through a cranial window
Procedure: In order to observe the two-photon microscope image of tissue of mice treated with the compound 8a (R1=R2=Me), 5XFAD mice (13-months-old, The Jackson Laboratory, Bar Harbor, Me., USA; stock no. 006554, Tg6799) were used. An amyloid beta plaque is shown as a typical characteristic of Alzheimer's disease.
All animal experiments were performed after the approval from an animal testing ethics committee. In an open-skull craniotomy surgery, imaging was performed after treatment with the compound 8a (R1=R2=Me) and MeO-X04 which is a well-known amyloid beta plaque fluorophore. The mice were fixed on a stereotactic heating surface using Zoletil 50 (Virbac; intramuscular injection, 0.03 mL) as an anesthetic agent (Seoul, Republic of Korea, 37° C.). After a scalp and periosteum were removed, a hole having a diameter of 3 mm was formed at a distance 1 mm from the bregma and 1 mm from the sagittal suture of a skull, a bone was removed, and then a round coverslip was adhered thereto using Loctite 454. The exposed portion of the skull was covered with a dental acrylic, and dexamethasone (0.2 mg/kg) and carprofen (5 mg/kg) which are anti-inflammatory drugs were used before and after the surgery.
A product manufactured by Carl Zeiss Microscopy GmbH (Oberkochen, Germany; model no. LSM 7 MP two-photon laser scanning microscope system) was used as a two-photon microscope. […] Further, the photo-bleaching process images and the relative fluorescence intensity in […] images before and after irradiation with a light source with respect to the compound 8a (R1=R2=Me) and a complex compound of an amyloid beta plaque are shown in FIG. 18. Referring to FIG. 18, it may be determined that the fluorescence intensity of the compound 8a (R1=R2=Me) decreased about 40% when irradiated with a two-photon light source for 35 minutes.

T2 sequence (P05067 672-713 limits assumed): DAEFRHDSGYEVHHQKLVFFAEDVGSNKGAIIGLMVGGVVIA
T1 sequence (P05067 672-713 limits assumed): as above

maximum emission wavelength (λem) compared with acedan ([1]; 1 μM in dichloromethane, acetonitrile, ethanol and PBS buffer solution): longer than that of conventional acedan
Structure (SMILES): CN(C)c1ccc2cc3c(cc2c1)OC1CCCC(=O)C1=C3 (stereo not shown) [compound 4a, 8-(dimethylamino)-2,3,4a-tetrahydro-1H-benzo[b]xanthene-1-one]
cytotoxicity (apoptosis) (SHSY5Y cells; 1 μM and 20 μM): 20%

molar extinction coefficient (ε) in a maximum absorption wavelength [2]: 10,700 Lmol^−1 cm^−1
fluorescence quantum yield ΦF ([1]; measured in ethanol solution, comparative compound): 0.52
Structure (SMILES): CC(=O)c1ccc2cc(N(C)C)ccc2c1 [acedan, 1-(6-dimethylaminonaphthalene-2-yl) ethanone]
two-photon absorption efficiency value [3]: ~100 GM

solubility in a PBS buffer solution [4]: sufficient solubility
fluorescence intensity when an amyloid beta plaque was present (amyloid beta 42 (Aβ 42); Aβ42 20 μM, PBS (pH 7.4) or aCSF, low when plaque absent): increased
fluorescence intensity according to pH [5]: low regardless of pH
conformity of image with MeO-X04 image (amyloid beta plaque; 30 mg/kg intraperitoneal, 24 hours before imaging, 1,000 nm, MeO-X04 10 mg/kg, 780 nm): significantly high
decrease of fluorescence intensity (photo-bleaching) (amyloid beta plaque; complex with amyloid beta plaque, tissue depth 50 μm, two-photon light source for 35 minutes): about 40%
Structure (SMILES): CN(C)c1ccc2cc3c(cc2c1)OCC(C=C(C#N)C#N)=C3 [compound 8a, 2-(((8-dimethylamino)-2H-benzo[g]chromene-3-yl)methylene)malononitrile]
selective detection of amyloid beta plaque (amyloid beta 42 (Aβ 42); Aβ42 versus BSA 20 μg/mL, PBS or aCSF): selectively detected an amyloid beta plaque
visualization of amyloid beta plaque in animal model with Alzheimer's disease (amyloid beta plaque; 30 mg/kg intraperitoneal, 13-month-old 5XFAD mice, frontal cortex, 1,000 nm, depth to 300 μm): selectively visualize an amyloid beta plaque
cytotoxicity (apoptosis) (SHSY5Y cells; 1 to 50 μM): 20%
